Earlier results in US20180325839A1, “TRANSDERMAL PATCHES” (BUZZZ PHARMACEUTICALS LIMITED, priority 2015, published 2018).

Key:
[1] = local anaesthetic during cataract surgery

Half-life compared with lidocaine [1]: longer
Skin permeation characteristics compared with lidocaine saturated H2O (ropivacaine saturated H2O): significantly poorer
In vivo skin penetration compared to a saturated solution of lidocaine (saturated solution of ropivacaine): poor
SMILES: CCCN1CCCC[C@H]1C(=O)Nc1c(C)cccc1C [ropivacaine, (2S)—N-(2,6-dimethylphenyl)-1-propyl-2-piperidinecarboxamide]
Potency relative to lidocaine, dose-for-dose [1]: as much as four times as potent as lidocaine
